#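 Where inhibition never reached the appropriate level, the endpoint shown equals the highest concentration tested. Otherwise, values were interpolated linearly from a five-concentration, 48-hour dose response in 96-well plates. TGI is the concentration that stops growth completely.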
# Columns and labels:
# Test in all cases: inhibition of tumour cell growth, NCI panel, 48 h
# RXF 393 renal = test system: RXF 393 renal
# SF-295 CNS = test system: SF-295 CNS
# SK-MEL-28 melanoma = test system: SK-MEL-28 melanoma
# K-562 leukemia = test system: K-562 leukemia
# OVCAR-5 ovarian = test system: OVCAR-5 ovarian
# MOLT-4 leukemia = test system: MOLT-4 leukemia
# IGROV1 ovarian = test system: IGROV1 ovarian
# KM12 colon = test system: KM12 colon
# A549 NSCLC = test system: A549 NSCLC
# CAKI-1 renal = test system: CAKI-1 renal
# NCI/ADR-RES ovarian = test system: NCI/ADR-RES ovarian
# SF-268 CNS = test system: SF-268 CNS
# SF-539 CNS = test system: SF-539 CNS
# UACC-62 melanoma = test system: UACC-62 melanoma
# NCI-H23 lung = test system: NCI-H23 lung
# NCI-H460 lung = test system: NCI-H460 lung
# TK-10 renal = test system: TK-10 renal
# HS 578T breast = test system: HS 578T breast
# 786-0 renal = test system: 786-0 renal
# MDA-MB-435 = test system: MDA-MB-435
# BT-549 breast = test system: BT-549 breast
# HOP-62 NSCLC = test system: HOP-62 NSCLC
# MDA-MB-231 breast = test system: MDA-MB-231 breast
# SW-620 colon = test system: SW-620 colon
# SK-OV-3 ovarian = test system: SK-OV-3 ovarian
# CCRF-CEM leukemia = test system: CCRF-CEM leukemia
# SNB-19 CNS = test system: SNB-19 CNS
# T-47D breast = test system: T-47D breast
# HL-60(TB) leukemia = test system: HL-60(TB) leukemia
# RPMI-8226 leukemia = test system: RPMI-8226 leukemia
# HCT-15 colon = test system: HCT-15 colon
# MDA-N = test system: MDA-N
# HCT-116 colon = test system: HCT-116 colon
# SK-MEL-2 melanoma = test system: SK-MEL-2 melanoma
# U251 CNS = test system: U251 CNS
# UO-31 renal = test system: UO-31 renal
# EKVX NSCLC = test system: EKVX NSCLC
# OVCAR-4 ovarian = test system: OVCAR-4 ovarian
# M14 melanoma = test system: M14 melanoma
# HT29 colon = test system: HT29 colon
# LOX IMVI melanoma = test system: LOX IMVI melanoma
# SR leukemia = test system: SR leukemia
# UACC-257 melanoma = test system: UACC-257 melanoma
# SK-MEL-5 melanoma = test system: SK-MEL-5 melanoma
# ACHN renal = test system: ACHN renal
# COLO 205 colon = test system: COLO 205 colon
# PC-3 prostate = test system: PC-3 prostate
# DU-145 prostate = test system: DU-145 prostate
# A498 renal = test system: A498 renal
# SN12C renal = test system: SN12C renal
# MCF7 breast = test system: MCF7 breast
# HCC-2998 colon = test system: HCC-2998 colon
# OVCAR-3 ovarian = test system: OVCAR-3 ovarian
# SNB-75 CNS = test system: SNB-75 CNS
# HOP-92 NSCLC = test system: HOP-92 NSCLC
# OVCAR-8 ovarian = test system: OVCAR-8 ovarian
# MALME-3M melanoma = test system: MALME-3M melanoma
# NCI-H522 lung = test system: NCI-H522 lung
# NCI-H226 lung = test system: NCI-H226 lung
compound,measurement,setting,value
c1ccc2c(c1)nc1n2CCSC1,TGI,RXF 393 renal,> 100 µM
same,TGI,SF-295 CNS,> 100 µM
same,TGI,SK-MEL-28 melanoma,> 100 µM
same,TGI,K-562 leukemia,> 100 µM
same,TGI,OVCAR-5 ovarian,> 100 µM
same,TGI,MOLT-4 leukemia,> 100 µM
same,TGI,IGROV1 ovarian,> 100 µM
same,TGI,KM12 colon,> 100 µM
same,TGI,A549 NSCLC,> 100 µM
same,TGI,CAKI-1 renal,> 100 µM
same,TGI,NCI/ADR-RES ovarian,> 100 µM
same,TGI,SF-268 CNS,> 100 µM
same,TGI,SF-539 CNS,> 100 µM
same,TGI,UACC-62 melanoma,> 100 µM
same,TGI,NCI-H23 lung,> 100 µM
same,TGI,NCI-H460 lung,> 100 µM
same,TGI,TK-10 renal,> 100 µM
same,TGI,HS 578T breast,> 100 µM
same,TGI,786-0 renal,> 100 µM
same,TGI,MDA-MB-435,> 100 µM
same,TGI,BT-549 breast,> 100 µM
same,TGI,HOP-62 NSCLC,> 100 µM
same,TGI,MDA-MB-231 breast,> 100 µM
same,TGI,SW-620 colon,> 100 µM
same,TGI,SK-OV-3 ovarian,> 100 µM
same,TGI,CCRF-CEM leukemia,> 100 µM
same,TGI,SNB-19 CNS,> 100 µM
same,TGI,T-47D breast,> 100 µM
same,TGI,HL-60(TB) leukemia,> 100 µM
same,TGI,RPMI-8226 leukemia,> 100 µM
same,TGI,HCT-15 colon,> 100 µM
same,TGI,MDA-N,> 100 µM
same,TGI,HCT-116 colon,> 100 µM
same,TGI,SK-MEL-2 melanoma,> 100 µM
same,TGI,U251 CNS,> 100 µM
same,TGI,UO-31 renal,> 100 µM
same,TGI,EKVX NSCLC,> 100 µM
same,TGI,OVCAR-4 ovarian,> 100 µM
same,TGI,M14 melanoma,> 100 µM
same,TGI,HT29 colon,> 100 µM
same,TGI,LOX IMVI melanoma,> 100 µM
same,TGI,SR leukemia,> 100 µM
same,TGI,UACC-257 melanoma,> 100 µM
same,TGI,SK-MEL-5 melanoma,> 100 µM
same,TGI,ACHN renal,> 100 µM
same,TGI,COLO 205 colon,> 100 µM
same,TGI,PC-3 prostate,> 100 µM
same,TGI,DU-145 prostate,> 100 µM
same,TGI,A498 renal,> 100 µM
same,TGI,SN12C renal,> 100 µM
same,TGI,MCF7 breast,> 100 µM
same,TGI,HCC-2998 colon,> 100 µM
same,TGI,OVCAR-3 ovarian,> 100 µM
same,TGI,SNB-75 CNS,> 100 µM
same,TGI,HOP-92 NSCLC,> 100 µM
COc1cc2c(/C=C3/C(=O)N(c4ccccc4)c4ccccc43)c(Cl)[nH]c2cc1C,TGI,RXF 393 renal,> 81.4 µM
same,TGI,SF-295 CNS,> 22.3 µM
same,TGI,SK-MEL-28 melanoma,> 100 µM
same,TGI,K-562 leukemia,> 100 µM
same,TGI,OVCAR-5 ovarian,> 40.5 µM
same,TGI,MOLT-4 leukemia,9 µM
same,TGI,IGROV1 ovarian,> 25.8 µM
same,TGI,KM12 colon,8.07 µM
same,TGI,A549 NSCLC,> 38.4 µM
same,TGI,CAKI-1 renal,> 59.5 µM
same,TGI,NCI/ADR-RES ovarian,6.49 µM
same,TGI,SF-268 CNS,> 53.8 µM
same,TGI,SF-539 CNS,5.86 µM
same,TGI,UACC-62 melanoma,27.9 µM
same,TGI,NCI-H23 lung,7.81 µM
same,TGI,NCI-H460 lung,9.04 µM
same,TGI,OVCAR-8 ovarian,> 31.6 µM
same,TGI,TK-10 renal,12.8 µM
same,TGI,HS 578T breast,> 100 µM
same,TGI,786-0 renal,> 44.6 µM
same,TGI,MDA-MB-435,3.55 µM
same,TGI,BT-549 breast,7.56 µM
same,TGI,HOP-62 NSCLC,> 23.6 µM
same,TGI,MDA-MB-231 breast,27 µM
same,TGI,SW-620 colon,> 100 µM
same,TGI,MALME-3M melanoma,19 µM
same,TGI,SK-OV-3 ovarian,4.78 µM
same,TGI,CCRF-CEM leukemia,> 38.5 µM
same,TGI,SNB-19 CNS,> 54.6 µM
same,TGI,T-47D breast,7.5 µM
same,TGI,HL-60(TB) leukemia,> 23.1 µM
same,TGI,RPMI-8226 leukemia,7.01 µM
same,TGI,HCT-15 colon,11.4 µM
same,TGI,NCI-H522 lung,6.24 µM
same,TGI,MDA-N,5.52 µM
same,TGI,HCT-116 colon,16.6 µM
same,TGI,SK-MEL-2 melanoma,8.25 µM
same,TGI,U251 CNS,> 33.3 µM
same,TGI,UO-31 renal,> 26.9 µM
same,TGI,EKVX NSCLC,> 31.4 µM
same,TGI,OVCAR-4 ovarian,6.55 µM
same,TGI,M14 melanoma,12.9 µM
same,TGI,HT29 colon,> 31 µM
same,TGI,LOX IMVI melanoma,10.2 µM
same,TGI,SR leukemia,30.5 µM
same,TGI,UACC-257 melanoma,21.3 µM
same,TGI,SK-MEL-5 melanoma,8.35 µM
same,TGI,ACHN renal,> 49.2 µM
same,TGI,COLO 205 colon,7.05 µM
same,TGI,PC-3 prostate,> 33.3 µM
same,TGI,DU-145 prostate,9.82 µM
same,TGI,A498 renal,> 71.4 µM
same,TGI,SN12C renal,6.29 µM
same,TGI,MCF7 breast,> 79 µM
same,TGI,NCI-H226 lung,> 100 µM
same,TGI,HCC-2998 colon,8.37 µM
same,TGI,OVCAR-3 ovarian,9.66 µM
same,TGI,SNB-75 CNS,18.9 µM
same,TGI,HOP-92 NSCLC,> 78.4 µM
